Experimental data as given in PMC5992652, “Insight into the functional roles of Glu175 in the hyperthermostable xylanase XYL10C-ΔN through structural analysis and site-saturation mutagenesis” (Biotechnology for Biofuels, 2018).

Assays:
[1] = target: T1, XYL10C-ΔN (Bispora sp. MEY-1, UniProt D0QF43); experiment: HPAEC of hydrolysis products; assay type: biochemical; details: pH 4.5, 70 °C, 16 h, Na2HPO4-citric acid; products mainly xylose and xylobiose
T1 construct: 18-residue signal peptide and the next 66 N-terminal residues removed; pPIC9, Pichia pastoris GS115; deglycosylated with Endo Hf; two monomers in asymmetric unit

[2] = target: T2, XYL10C (Bispora sp. MEY-1, UniProt D0QF43); experiment: HPAEC of hydrolysis products; assay type: biochemical; details: pH 4.5, 70 °C, 16 h, Na2HPO4-citric acid; products mainly xylose and xylobiose
T2 construct: 18-residue signal peptide
T2 sequence (D0QF43 19-424): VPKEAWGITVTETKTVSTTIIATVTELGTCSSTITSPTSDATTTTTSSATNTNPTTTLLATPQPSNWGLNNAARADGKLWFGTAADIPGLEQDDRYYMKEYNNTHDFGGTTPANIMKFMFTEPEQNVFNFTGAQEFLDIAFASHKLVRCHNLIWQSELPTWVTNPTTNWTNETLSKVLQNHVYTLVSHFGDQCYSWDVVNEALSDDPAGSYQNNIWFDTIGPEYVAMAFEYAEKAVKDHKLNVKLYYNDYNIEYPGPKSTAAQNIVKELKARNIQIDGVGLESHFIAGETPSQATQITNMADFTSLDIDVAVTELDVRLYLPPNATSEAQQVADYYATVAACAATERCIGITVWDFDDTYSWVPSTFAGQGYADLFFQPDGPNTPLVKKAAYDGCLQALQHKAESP

SMILES | HPAEC of hydrolysis products [1] | HPAEC of hydrolysis products [2]
OC1OC[C@@H](O[C@@H]2OC[C@@H](O[C@@H]3OC[C@@H](O[C@@H]4OC[C@@H](O[C@@H]5OC[C@@H](O[C@@H]6OC[C@@H](O)[C@H](O)[C@H]6O)[C@H](O)[C@H]5O)[C@H](O)[C@H]4O)[C@H](O)[C@H]3O)[C@H](O)[C@H]2O)[C@H](O)[C@H]1O (stereo partly shown) [X6, xylohexaose] | employed an endo-mode of action to cleave xylotriose, xylotetraose, xylopentaose, xylohexaose | employed an endo-mode of action to cleave xylotriose, xylotetraose, xylopentaose, xylohexaose
OC1OC[C@@H](O[C@@H]2OC[C@@H](O[C@@H]3OC[C@@H](O)[C@H](O)[C@H]3O)[C@H](O)[C@H]2O)[C@H](O)[C@H]1O (stereo partly shown) [X3, xylotriose] | employed an endo-mode of action to cleave xylotriose, xylotetraose, xylopentaose, xylohexaose | employed an endo-mode of action to cleave xylotriose, xylotetraose, xylopentaose, xylohexaose
